Test: Visual assessment of discoloration on exposure to light
Conditions: benzotriazole up to 5 g/g of silver ions, hydroxylamine hydrochloride up to 3 g/g of silver ions, without pinacryptol yellow

Row | Compound | suppression of discoloration of formulation and textile by stabilizer
1 | c1ccc2[nH]nnc2c1 [benzotriazole] | not capable, in the concentration used, of permanently suppressing either the discoloration of the formulation itself or the discoloration of the textile
2 | Cl.NO [hydroxylamine hydrochloride] | not capable, in the concentration used, of permanently suppressing either the discoloration of the formulation itself or the discoloration of the textile
